Results: patent US20240315219A1, “ANIMAL MODEL FOR DISEASES ASSOCIATED WITH ABSENCE OR REDUCTION OF SOCIAL DOMINANCE, AND PHARMACEUTICAL COMPOSITION FOR PREVENTING OR TREATING DISEASES” (ADEL, Inc., priority 2021, published 2024)

Columns and labels:
CRTC3 KO mice = assay: Tube dominance test, CRTC3 KO mice housed with WT mice; format: in vivo, mouse
Experimental: (§1) The apparatus for the tube dominance test was made of a transparent plastic tube with a length of 30 cm and an inner diameter of 2.5 cm. To allow the mice to adapt to passing through the inside of the tube, the respective mice were trained to pass across the tube alternately on both sides for two or three consecutive days. During the training period, care was taken to ensure that the mice passed through the tube as naturally as possible without causing stress. This test was performed after identifying that all mice could freely pass through the tube without stress.
During the dominance test period, a total of 2 mice, one at each end of the tube, were placed to meet in the middle of the tube. In a case where one mouse pushed the other mouse out of the tube, one (1) winning point was earned. The test was repeated three times. […] For each test, win or loss was determined by winning points. […]
First, starting at 1 month of age, the CRTC3 KO mice and the WT mice were housed in one group and raised together for 2 months. […] To determine changes in ranking of the mice in the group, social dominance ranking was evaluated by a tube dominance test daily for 15 days starting at 3 months of age. The respective mice in the group were tested in turn, and dominance ranking of the mice in the group was determined based on their winning points. […]

C57BL/6 mice = assay: Tube dominance test, lowest-ranked mouse in C57BL/6 mouse group; format: in vivo; conditions: lowest-ranked C57BL/6 mouse, intracerebroventricular via osmotic pump
Experimental: as §1
During the dominance test period, a total of 2 mice, one at each end of the tube, were placed to meet in the middle of the tube. In a case where one mouse pushed the other mouse out of the tube, one (1) winning point was earned. The test was repeated three times. For example, in a case where one mouse earned 2 or 3 winning points, the mouse was considered a winner and the other mouse was considered a loser. For the mice housed in the same cage, the tube test was performed on three mice in turn to determine social dominance ranking. For example, for mouse no. 1, the tube test was performed with mouse nos. 2 and 3. In a case where mouse no. 1 wins both mice, it is ranked first. Meanwhile, in a case where mouse no. 2 loses to mouse no. 1 and wins mouse no. 3, it is ranked second. In the two tests, mouse no. 3 is ranked third since it loses to both mice. For each test, win or loss was determined by winning points.
First, starting at 1 month of age, the CRTC3 KO mice and the WT mice were housed in one group and raised together for 2 months. This allowed social ranking to be naturally formed among the mice in the same group. To determine changes in ranking of the mice in the group, social dominance ranking was evaluated by a tube dominance test daily for 15 days starting at 3 months of age. The respective mice in the group were tested in turn, and dominance ranking of the mice in the group was determined based on their winning points. […]

wild-type rats = assay: Brain fMRI, resting-state functional connectivity (rsFC) in wild-type rats; format: in vivo, rat; conditions: SD rats, vs PBS group
Experimental: To identify which regions of the brain are affected by administration of AREG-EGF, fMRI was performed on wild-type rats injected with AREG-EGF. The rats having received PBS as a control and the rats having received AREG-EGF were imaged with fMRI one month later, in which interaction signals between various regions in the brain were checked. Specifically, the rats, which are SD (Spraque Dawley) rat species, were eight, 5- to 6-week-old male rats purchased from Orient Bio. AREG-EGF was administered to the rats by intracerebroventricular injection (ICV) on Weeks 6 to 7 after the purchase, and fMRI imaging was performed 21 days after the administration. The fMRI imaging was performed in such a way that first imaging was performed on an anesthetized rat under normal conditions (pre-state), and then fMRI re-imaging was performed on the same rat by placing cotton soaked in the urine of another rat, which it had never encountered, so that the rat being imaged can sniff the cotton (post-state). For rodents, social responses such as social identification occur through urine marking done by the other individuals. Thus, urine from an unfamiliar rat was used to elicit social responses. For specific methods of administering AREG-EGF and performing MRI analysis, see Experimental Examples 2.1 and 3. […]

Substance | cages in which changes (increase) in social dominance ranking were observed after administration (CRTC3 KO mice; CRTC3 KO mice with low ranking, housed with WT mice, intracerebroventricular via osmotic pump) | winning points after vs before administration (CRTC3 KO mice; CRTC3 KO mice, ICV osmotic pump) | cages in which ranking of the lowest-ranked mouse increased after administration (C57BL/6 mice) | rsFC between PFC and PC (average z-transformed correlation coefficient) (wild-type rats; ICV osmotic pump, fMRI 21 days after) | rsFC seed-correlation spatial map, seed Cg1/2 (24b′/24a′) (wild-type rats; ICV)
AREG-EGF: Peptide of the EGF domain of amphiregulin, SEQ ID NO: 13, from Peptron (KKNPCNAEFQNFCIHGECKYIEHLEAVTCKCQQEYFGERCGEK; AREG-EGF Peptide) | 50% | changes in winning points and increases in tube test ranking | 80% | significantly high activity | significantly enhanced region was observed in PC
AREG-HB: Peptide of the heparin-binding domain of amphiregulin, SEQ ID NO: 14, from Peptron; control (SVRVEQVVKPPQNKTESENTSDKPKRKKKGGKNGKNRRNRK; AREG-HB Peptide) [reference compound] | – | – | 10% | – | –
mEGF: Recombinant mouse EGF from R&D Systems, SEQ ID NO: 12; control (NSYPGCPSSYDGYCLNGGVCMHIESLDSYTCNCVIGYSGDRCQTRDLRWWELR; Mouse EGF Protein; listed as Mus musculus) [reference compound] | – | – | 0% | – | –
